Reference: PMC5231411 (Science signaling, 2016)

Experiments:
[1] = test system: C57BL/6 mice; assay: Warm water tail immersion; format: in vivo, mouse
[2] = test system: C57BL/6 mice; assay: Chloroquine phosphate-induced scratching; format: in vivo, mouse; conditions: NorBNI 10 mg/kg ip 24 hours prior; triazole 1.1 1 mg/kg sc
[3] = test system: male Fisher 344 rats; assay: Suppression of VTA ICSS by 1.8% lactic acid; format: in vivo, rat; conditions: triazole 1.1 24 mg/kg
[4] = test system: male Fisher 344 rats; conditions: NorBNI 32 mg/kg 24 hours prior; U50,488H 6 mg/kg
[5] = test system: KOR; assay: Bias analysis, G protein; conditions: reference U50,488H
[6] = biological target: KOR (OPRK1) βarrestin2 recruitment (Homo sapiens, UniProt P41145); assay: βarrestin2 enzyme fragment complementation assay; format: cell-based
[7] = biological target: striatal KOR (Mus musculus, UniProt P33534); format: binding
[8] = biological target: human KOR (Homo sapiens, UniProt P41145); format: biochemical
[9] = test system: KOR; conditions: compared to reference agonist U69,593; cited from earlier work
[10] = after systemic dosing; cited from earlier work
[11] = test system: C57BL/6J male mice; conditions: mouse, in vivo
[12] = test system: dopamine concentration in nucleus accumbens; assay: Microdialysis of nucleus accumbens dopamine in freely moving mice; format: in vivo, mouse; conditions: triazole 1.1 15 mg/kg ip
[13] = test system: dopamine release in nucleus accumbens; conditions: mouse brain slices
[14] = biological target: KOR in mouse striatum (Mus musculus, UniProt P33534); assay: [35S]GTPγS binding in mouse striatal membranes; format: biochemical
[15] = test system: mice; conditions: cited from earlier work
[16] = test system: mice; conditions: mouse, in vivo; cited from earlier work
[17] = test system: KOR; conditions: cited from earlier work

striatal KOR, sequence (P33534 whole entry): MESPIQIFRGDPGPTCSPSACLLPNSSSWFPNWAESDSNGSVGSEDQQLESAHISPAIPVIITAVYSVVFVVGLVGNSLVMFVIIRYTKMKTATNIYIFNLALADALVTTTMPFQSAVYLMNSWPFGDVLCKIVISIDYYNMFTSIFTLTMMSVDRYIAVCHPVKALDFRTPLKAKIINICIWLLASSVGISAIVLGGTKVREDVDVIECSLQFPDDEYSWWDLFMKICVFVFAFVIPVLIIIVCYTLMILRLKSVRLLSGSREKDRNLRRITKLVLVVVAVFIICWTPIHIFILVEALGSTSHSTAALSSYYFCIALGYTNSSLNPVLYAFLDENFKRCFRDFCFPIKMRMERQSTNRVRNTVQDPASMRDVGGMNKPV
KOR in mouse striatum, sequence (P33534 whole entry): as above
KOR (OPRK1) βarrestin2 recruitment, sequence (P41145 whole entry, the tested form may be a part): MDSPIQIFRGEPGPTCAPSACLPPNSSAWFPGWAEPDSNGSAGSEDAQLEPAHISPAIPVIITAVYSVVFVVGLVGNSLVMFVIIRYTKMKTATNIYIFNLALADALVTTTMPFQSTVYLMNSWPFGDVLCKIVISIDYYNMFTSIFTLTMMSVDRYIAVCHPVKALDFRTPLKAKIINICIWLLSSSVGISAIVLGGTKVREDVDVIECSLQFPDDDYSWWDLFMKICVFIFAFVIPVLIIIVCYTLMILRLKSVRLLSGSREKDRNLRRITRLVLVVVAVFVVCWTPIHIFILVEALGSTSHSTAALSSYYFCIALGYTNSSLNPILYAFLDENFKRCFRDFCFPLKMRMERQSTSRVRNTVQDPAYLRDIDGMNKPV
human KOR, sequence (P41145 whole entry): as the sequence (P41145 whole entry, the tested form may be a part) above

Oc1ccc2c3c1O[C@H]1c4[nH]c5c(c4C[C@@]4(O)[C@@H](C2)N(CC2CC2)CC[C@]314)C[C@@]1(O)[C@H]2Cc3ccc(O)c4c3[C@@]1(CCN2CC1CC1)[C@H]5O4 [NorBNI, Norbinaltorphimine, reference compound]
Antagonism of agonist-induced antinociception (tail flick) ([1]; NorBNI 15 mg/kg ip, 10 min before U50,488H or triazole 1.1): fully antagonized the antinociception produced by both compounds
Blockade of antipruritic effects of triazole 1.1 [2]: blocked the antipruritic effects of triazole 1.1
Blockade of analgesic effect of triazole 1.1 on lactic acid-suppressed ICSS ([3]; NorBNI 32 mg/kg prior): completely blocked
Blockade of U50,488H effects on ICSS [4]: blocked

Cc1ccc(CSc2nnc(-c3ccccn3)n2Cc2ccco2)cc1C(F)(F)F [Triazole 1.1, 2-(4-(furan-2-ylmethyl)-5-((4-methyl-3-(trifluoromethyl)benzyl)thio)-4H-1,2,4-triazol-3-yl)pyridine]
Bias factor G/β (10^ΔΔLogR) ([5]; G protein/βarrestin2): 28
ΔΔLogR (ΔLogR of [35S]GTPγS − ΔLogR of βarrestin2 EFC) ([5]; with 95% CI): 1.44 (1.29 to 1.60)
βarrestin2 enzyme fragment complementation assay Emax [6]: 98 ± 4%
Reduction of specific [3H]U69,593 binding in striatum compared to untreated mice [7]: 40%
[35S]GTPγS binding assay Emax [8]: 101 ± 5%
Preference for G protein signaling over βarrestin2 recruitment [9]: displays a preference for G protein signaling over βarrestin2 recruitment
Response latency (%MPE) in warm water tail flick assay ([1]; C57BL/6 mice, sc, 20 min after injection, 10-s cutoff): produced an increase in response latency in a dose-dependent manner
Antinociceptive efficacy in KOR-KO mice (tail flick) ([1]; KOR-KO mice, 30 mg/kg, ip): Neither drug had efficacy in KOR-KO mice
Brain penetration (tissue content in whole brain) [10]: brain-penetrant
Locomotor activity (ambulation) in open field over 1 hour [11]: did not affect locomotor activity at any of the doses tested
Effect on dopamine concentration in nucleus accumbens (microdialysis) [12]: did not significantly affect dopamine concentrations
Effect on evoked dopamine release, nucleus accumbens core ([13]; 10-1000 nM): no measureable decreases in the core
Effect on evoked dopamine release, nucleus accumbens shell ([13]; 10-1000 nM): a modest decrease in the shell only at the highest concentration tested
EC50 for decrease in dopamine release, nucleus accumbens core ([13]; 10-1000 nM cumulative): nonconvergence of curves
EC50 for decrease in dopamine release, nucleus accumbens shell ([13]; 10-1000 nM cumulative): nonconvergence of curves
Effect on lactic acid-induced suppression of ICSS (EF50 and Rmax) ([3]; […] lactic acid ip, ketoprofen 1 mg/kg sc, U50,488H 6 mg/kg): suppressed the effect of lactic acid compared to vehicle administration
EC50 [14]: 497 ± 34 nM

RB-64
Conditioned place aversion (CPA) [15]: produces conditioned place aversion (CPA) in mice
Antinociceptive efficacy and locomotor activity [16]: preserves antinociceptive efficacy without decreasing locomotor activity
Bias for G protein signaling over βarrestin2 recruitment [17]: displays bias for G protein signaling over βarrestin2 recruitment
